Data set [1] concerns the target T1, glucocerebrosidase (Gcase) (Homo sapiens, UniProt P04062).
T1 sequence (P04062 40-536): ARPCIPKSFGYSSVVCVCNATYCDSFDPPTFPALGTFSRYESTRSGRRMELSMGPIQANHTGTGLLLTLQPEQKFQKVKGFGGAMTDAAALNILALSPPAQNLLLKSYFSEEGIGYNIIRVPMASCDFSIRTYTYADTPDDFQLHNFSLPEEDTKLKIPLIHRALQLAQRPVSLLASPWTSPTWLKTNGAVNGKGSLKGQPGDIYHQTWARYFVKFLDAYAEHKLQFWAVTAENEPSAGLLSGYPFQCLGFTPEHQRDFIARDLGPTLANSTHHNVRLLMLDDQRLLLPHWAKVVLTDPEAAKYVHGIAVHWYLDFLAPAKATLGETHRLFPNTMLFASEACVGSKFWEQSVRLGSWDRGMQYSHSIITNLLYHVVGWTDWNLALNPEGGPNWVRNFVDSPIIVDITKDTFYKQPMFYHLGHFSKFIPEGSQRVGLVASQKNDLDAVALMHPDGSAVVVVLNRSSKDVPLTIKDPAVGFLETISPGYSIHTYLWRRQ
As to the kind of experiment: Glucocerebrosidase (Gcase) activation assay, 4-methylumbelliferyl-beta-D-glucopyranoside substrate, fluorescence. As to conditions: 0.25 h, 10 nM GCase, 100 nM saposin C; for activation at 0.1 µM: pH 4.7, test compound at 0.1 μM, read-out: Percent Gcase Activation 0.1 μM Test Compound; for activation at 1 µM: pH 4.7, test compound at 1.0 μM, read-out: Percent Gcase Activation 1 μM Test Compound. The class given is biochemical. In a few lines:
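10 nM GCase with 100 nM saposin C in Triton/phosphatidylserine micelles (citrate-phosphate, pH 4.7), pre-incubated 30 min at room temperature with compound, then 2 mM 4-methylumbelliferyl-β-D-glucoside stock mixed 1:1; 15 min reaction, stopped with glycine pH 12.5, fluorescence at 365/440 nm. Activation scored at 1.0 and 0.1 μM; 8-point curves from 5 μM top.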

Data set [2] can be described thus: Compound solubility in water. The data set is classed as physicochemical.

Values after ≈ are worked out from the molar mass of the structure shown. Where only a bound is given, the exact number is not on record here.

Broadly, the solubility is the dissolved amount per volume that the medium holds. Read a low solubility as little dissolved substance. `CCc1cc(C)nc2c(C(=O)N[C@H]3CC[C@H](OC(C)(C)C)CC3)ccn12` [IV-5]: in data set [1], the activation at 0.1 µM lay in the range of 10 to 20% and the activation at 1 µM was above 60%. Also, the solubility in data set [2] is 8.1 µg/mL (≈ 22.7 µM).

For `CCc1cc(C)n2ccc(C(=O)N[C@H]3CC[C@H](OC(C)(C)C)CC3)c2n1` [IV-6], in data set [1], the activation at 0.1 µM was in the range of 10 to 20% and the activation at 1 µM is above 60%. In data set [2], this compound registered a solubility of 7.9 µg/mL (≈ 22.1 µM).

For the compound `Cc1cc(-c2cccc(C(N)=O)c2)nc2c(C(=O)NC(C3CC3)C(F)(F)F)ccn12` (stereo not drawn) [IV-7], in data set [1], the activation at 0.1 µM is above 20% and the activation at 1 µM is above 60%. The concentration in solution in data set [2] (solubility) was 0.4 µg/mL (≈ 0.961 µM).

On to `Cc1cc(C(F)F)n2ccc(C(=O)N[C@H]3CC[C@H](OC(C)(C)C)CC3)c2n1` [IV-8], for which, in data set [1], the activation at 0.1 µM lay within 10 to 20% and the activation at 1 µM was above 60%. The compound further displayed a solubility in data set [2] of 0.9 µg/mL (≈ 2.37 µM).

`Cc1cc(C(F)F)n2ccc(C(=O)N[C@H]3CC[C@H](OCC(C)C)CC3)c2n1` [IV-9]: in data set [1], the activation at 0.1 µM is above 20% and the activation at 1 µM is above 60%. Also, in data set [2], the solubility stood at 1.5 µg/mL (≈ 3.95 µM).

Turning to `Cc1cc(C(F)F)n2ccc(C(=O)N[C@H]3CC[C@H](OCC(C)(C)C)CC3)c2n1` [IV-10], in data set [1], the activation at 0.1 µM was above 20% and the activation at 1 µM was above 60%. In data set [2], this compound returned a solubility of 0.3 µg/mL (≈ 0.762 µM).

Regarding `CCCO[C@H]1CC[C@H](NC(=O)c2ccn3c(C(F)F)cc(C)nc23)CC1` [IV-11], in data set [1], the activation at 0.1 µM was above 20% and the activation at 1 µM is above 60%. In data set [2], this compound showed a solubility of 9 µg/mL (≈ 24.6 µM).

Turning to `CCCO[C@H]1CC[C@H](NC(=O)c2ccn3c(C)cc(C(F)F)nc23)CC1` [IV-12], in data set [1], the activation at 0.1 µM was 10 to 20% and the activation at 1 µM was above 60%. For the same compound, the solubility in data set [2] came out at 18.5 µg/mL (≈ 50.6 µM).

Take `Cc1cc(C(F)F)nc2c(C(=O)N[C@H]3CC[C@H](OCC(C)C)CC3)ccn12` [IV-13]: in data set [1], the activation at 0.1 µM was above 20% and the activation at 1 µM is above 60%. In addition, in data set [2], the solubility was 5 µg/mL (≈ 13.2 µM).

As to `Cc1cc(C(F)F)nc2c(C(=O)N[C@H]3CC[C@H](OCC(C)(C)C)CC3)ccn12` [IV-14], in data set [1], the activation at 0.1 µM is above 20% and the activation at 1 µM is above 60%. Moreover, in data set [2], the concentration in solution (solubility) came to 0.8 µg/mL (≈ 2.03 µM).

Consider `CCCCO[C@H]1CC[C@H](NC(=O)c2ccn3c(C)cc(N4CCOCC4)nc23)CC1` [IV-15], for which, in data set [1], the activation at 0.1 µM lay within 10 to 20% and the activation at 1 µM was above 60%. For the same compound, in data set [2], the solubility came out at 8.4 µg/mL (≈ 20.3 µM).

With `Cc1cc(C)n2ccc(C(=O)NC(C3CC3)C(F)(F)F)c2n1` (stereo not drawn) [IV-16], in data set [1], the activation at 0.1 µM was above 20% and the activation at 1 µM is above 60%. The same compound registered a solubility in data set [2] of 3.1 µg/mL (≈ 9.96 µM).

Regarding `Cc1cc(C)n2c(F)cc(C(=O)N[C@@H](C)C3CC3)c2n1` [IV-17], in data set [1], the activation at 0.1 µM is 10 to 20% and the activation at 1 µM is above 60%. In data set [2], this compound came in with a solubility of 21.6 µg/mL (≈ 78.5 µM).

`Cc1cc(C)n2ccc(C(=O)NC(C)(C)c3ccc4c(c3)OCCO4)c2n1` [IV-19]: in data set [1], the activation at 0.1 µM is above 20% and the activation at 1 µM is above 60%. In addition, in data set [2], the solubility is 2.1 µg/mL (≈ 5.75 µM).

For the compound `Cc1cc(C)n2ccc(C(=O)N[C@@H](C)c3ccccc3F)c2n1` [IV-20], in data set [1], the activation at 0.1 µM was above 20% and the activation at 1 µM is above 60%. In data set [2], this compound returned a solubility of 2.5 µg/mL (≈ 8.03 µM).

Take `Cc1cc(C)n2ccc(C(=O)N[C@@H](C)c3ccc(F)cc3)c2n1` [IV-21]: in data set [1], the activation at 0.1 µM was above 20% and the activation at 1 µM was above 60%. For the same compound, the concentration in solution in data set [2] (solubility) was 3.3 µg/mL (≈ 10.6 µM).

Take `Cc1cc(C)n2ccc(C(=O)NC(C)(C)c3ccccc3Cl)c2n1` [IV-22]: in data set [1], the activation at 0.1 µM lay in the range of 10 to 20% and the activation at 1 µM is above 60%. The compound further displayed a solubility in data set [2] of 1.3 µg/mL (≈ 3.8 µM).

As to `Cc1cc(C)n2ccc(C(=O)NC(C)c3cccc4ccccc34)c2n1` (stereo not drawn) [IV-23], in data set [1], the activation at 0.1 µM lay in the range of 10 to 20% and the activation at 1 µM is above 60%. In data set [2], the “Compound Solubility in Water” value is 0.2 µg/mL.

Consider `COc1ccc([C@@H](C)NC(=O)c2ccn3c(C)cc(C)nc23)cc1` [IV-24], for which, in data set [1], the activation at 0.1 µM was below 10% and the activation at 1 µM was above 60%. The compound further showed a solubility in data set [2] of 5.3 µg/mL (≈ 16.4 µM).

The values above are taken from patent US11124516B2, “Pyrrolo[1,2-A]pyrimidinyl carboxamide compounds and their use in the treatment of medical disorders” (Bial—Biotech Investments, Inc., priority 2016, dated 2021).
